Measurements from the supplement of paper PMC10307832.

What was measured:
Assay in all cases: relative viability (nuclei count vs DMSO), 5 days (fraction); higher = more cells survive
HCC-827 = system: HCC-827
Procedure, shortened: (§1)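 A single step with final 0.05% Triton X-100, 1% formaldehyde and 1 ug/ml Hoechst fixed the cells and stained nuclei 5 days after treatment. Lung cancer cell lines in 1536-well plates had been treated by pin tool the day after seeding with one drug alone or a fixed anchor-drug dose plus five library-drug doses (not always all listed) in √10 steps, and nuclei were counted on 4× images. Relative viability is the ratio of nuclei in treated wells to nuclei in vehicle wells, taken as the median of duplicate plates.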

NCI-H1395 = system: NCI-H1395
Procedure, shortened: as §1

LCLC-103H = system: LCLC-103H
Procedure, shortened: as §1

EPLC-272H = system: EPLC-272H
Procedure, shortened: as §1

NCI-H23 = system: NCI-H23
Procedure, shortened: as §1

NCI-H2405 = system: NCI-H2405
Procedure, shortened: as §1

H3255 = system: H3255
Procedure, shortened: as §1

NCI-H1944 = system: NCI-H1944
Procedure, shortened: as §1

NCI-H2087 = system: NCI-H2087
Procedure, shortened: as §1

NCI-H1355 = system: NCI-H1355
Procedure, shortened: as §1

LCLC-97TM1 = system: LCLC-97TM1
Procedure, shortened: as §1

UMC-11 = system: UMC-11
Procedure, shortened: as §1

NCI-H2085 = system: NCI-H2085
Procedure, shortened: as §1

SK-MES-1 = system: SK-MES-1
Procedure, shortened: as §1

HCC-44 = system: HCC-44
Procedure, shortened: as §1

NCI-H520 = system: NCI-H520
Procedure, shortened: as §1

NCI-H1993 = system: NCI-H1993
Procedure, shortened: as §1

NCI-H1793 = system: NCI-H1793
Procedure, shortened: as §1

NCI-H650 = system: NCI-H650
Procedure, shortened: as §1

EMC-BAC-2 = system: EMC-BAC-2
Procedure, shortened: as §1

NCI-H1563 = system: NCI-H1563
Procedure, shortened: as §1

NCI-H1651 = system: NCI-H1651
Procedure, shortened: as §1

NCI-H322M = system: NCI-H322M
Procedure, shortened: as §1

ChaGo-K-1 = system: ChaGo-K-1
Procedure, shortened: as §1

Structure (SMILES): COc1cc(N2CCC(C(N)=O)CC2)ccc1Nc1nc(N)c(Cl)c(Nc2ccccc2S(=O)(=O)C(C)C)n1 [HG-5-88-01] + CS(=O)(=O)N1CCN(Cc2cc3nc(-c4cccc5[nH]ncc45)nc(N4CCOCC4)c3s2)CC1 [Pictilisib] (partner 1 µM)
- relative viability (HCC-827; first compound 0.04 µM): 1.02
- relative viability (HCC-827; first compound 0.1265 µM): 0.931
- relative viability (HCC-827; first compound 0.4 µM): 0.924
- relative viability (HCC-827; first compound 1.265 µM): 0.552
- relative viability (HCC-827; first compound 4 µM): 0.56
- relative viability (NCI-H1395; first compound 0.04 µM): 0.582
- relative viability (NCI-H1395; first compound 0.1265 µM): 0.587
- relative viability (NCI-H1395; first compound 0.4 µM): 0.598
- relative viability (NCI-H1395; first compound 1.265 µM): 0.584
- relative viability (NCI-H1395; first compound 4 µM): 0.523
- relative viability (LCLC-103H; first compound 0.04 µM): 0.643
- relative viability (LCLC-103H; first compound 0.1265 µM): 0.555
- relative viability (LCLC-103H; first compound 0.4 µM): 0.484
- relative viability (LCLC-103H; first compound 1.265 µM): 0.608
- relative viability (LCLC-103H; first compound 4 µM): 0.426
- relative viability (EPLC-272H; first compound 0.04 µM): 0.302
- relative viability (EPLC-272H; first compound 0.1265 µM): 0.262
- relative viability (EPLC-272H; first compound 0.4 µM): 0.29
- relative viability (EPLC-272H; first compound 1.265 µM): 0.219
- relative viability (EPLC-272H; first compound 4 µM): 0.0916
- relative viability (NCI-H23; first compound 0.04 µM): 0.382
- relative viability (NCI-H23; first compound 0.1265 µM): 0.572
- relative viability (NCI-H23; first compound 0.4 µM): 0.469
- relative viability (NCI-H23; first compound 1.265 µM): 0.533
- relative viability (NCI-H23; first compound 4 µM): 0.35
- relative viability (NCI-H2405; first compound 0.04 µM): 0.286
- relative viability (NCI-H2405; first compound 0.1265 µM): 0.465
- relative viability (NCI-H2405; first compound 0.4 µM): 0.363
- relative viability (NCI-H2405; first compound 1.265 µM): 0.329
- relative viability (NCI-H2405; first compound 4 µM): 0.451
- relative viability (H3255; first compound 0.04 µM): 0.479
- relative viability (H3255; first compound 0.1265 µM): 0.484
- relative viability (H3255; first compound 0.4 µM): 0.449
- relative viability (H3255; first compound 4 µM): 0.317
- relative viability (NCI-H1944; first compound 0.04 µM): 0.319
- relative viability (NCI-H1944; first compound 0.1265 µM): 0.341
- relative viability (NCI-H1944; first compound 0.4 µM): 0.336
- relative viability (NCI-H1944; first compound 1.265 µM): 0.334
- relative viability (NCI-H1944; first compound 4 µM): 0.352
- relative viability (NCI-H2087; first compound 0.04 µM): 0.835
- relative viability (NCI-H2087; first compound 0.1265 µM): 1.08
- relative viability (NCI-H2087; first compound 0.4 µM): 0.928
- relative viability (NCI-H2087; first compound 1.265 µM): 0.771
- relative viability (NCI-H2087; first compound 4 µM): 0.9
- relative viability (NCI-H1355; first compound 0.04 µM): 0.253
- relative viability (NCI-H1355; first compound 0.1265 µM): 0.462
- relative viability (NCI-H1355; first compound 0.4 µM): 0.412
- relative viability (NCI-H1355; first compound 1.265 µM): 0.414
- relative viability (NCI-H1355; first compound 4 µM): 0.299
- relative viability (LCLC-97TM1; first compound 0.04 µM): 0.156
- relative viability (LCLC-97TM1; first compound 0.1265 µM): 0.185
- relative viability (LCLC-97TM1; first compound 0.4 µM): 0.146
- relative viability (LCLC-97TM1; first compound 1.265 µM): 0.213
- relative viability (LCLC-97TM1; first compound 4 µM): 0.135
- relative viability (UMC-11; first compound 0.04 µM): 0.506
- relative viability (UMC-11; first compound 0.1265 µM): 0.937
- relative viability (UMC-11; first compound 0.4 µM): 0.692
- relative viability (UMC-11; first compound 1.265 µM): 0.815
- relative viability (UMC-11; first compound 4 µM): 0.49
- relative viability (NCI-H2085; first compound 0.04 µM): 0.478
- relative viability (NCI-H2085; first compound 0.1265 µM): 0.457
- relative viability (NCI-H2085; first compound 0.4 µM): 0.525
- relative viability (NCI-H2085; first compound 1.265 µM): 0.414
- relative viability (NCI-H2085; first compound 4 µM): 0.442
- relative viability (SK-MES-1; first compound 0.04 µM): 0.37
- relative viability (SK-MES-1; first compound 0.1265 µM): 0.373
- relative viability (SK-MES-1; first compound 0.4 µM): 0.354
- relative viability (SK-MES-1; first compound 1.265 µM): 0.282
- relative viability (SK-MES-1; first compound 4 µM): 0.299
- relative viability (HCC-44; first compound 0.04 µM): 0.695
- relative viability (HCC-44; first compound 0.1265 µM): 0.569
- relative viability (HCC-44; first compound 0.4 µM): 0.542
- relative viability (HCC-44; first compound 1.265 µM): 0.519
- relative viability (HCC-44; first compound 4 µM): 0.375
- relative viability (NCI-H520; first compound 0.04 µM): 0.366
- relative viability (NCI-H520; first compound 0.1265 µM): 0.273
- relative viability (NCI-H520; first compound 0.4 µM): 0.235
- relative viability (NCI-H520; first compound 1.265 µM): 0.299
- relative viability (NCI-H520; first compound 4 µM): 0.36
- relative viability (NCI-H1993; first compound 0.04 µM): 0.689
- relative viability (NCI-H1993; first compound 0.1265 µM): 0.829
- relative viability (NCI-H1993; first compound 0.4 µM): 0.606
- relative viability (NCI-H1993; first compound 1.265 µM): 1.04
- relative viability (NCI-H1993; first compound 4 µM): 0.873
- relative viability (NCI-H1793; first compound 0.1265 µM): 0.336
- relative viability (NCI-H1793; first compound 0.4 µM): 0.3
- relative viability (NCI-H1793; first compound 1.265 µM): 0.426
- relative viability (NCI-H1793; first compound 4 µM): 0.308
- relative viability (NCI-H650; first compound 0.04 µM): 0.88
- relative viability (NCI-H650; first compound 0.1265 µM): 0.925
- relative viability (NCI-H650; first compound 0.4 µM): 0.864
- relative viability (NCI-H650; first compound 1.265 µM): 0.743
- relative viability (NCI-H650; first compound 4 µM): 0.685
- relative viability (EMC-BAC-2; first compound 0.04 µM): 0.531
- relative viability (EMC-BAC-2; first compound 0.1265 µM): 0.509
- relative viability (EMC-BAC-2; first compound 0.4 µM): 0.495
- relative viability (EMC-BAC-2; first compound 1.265 µM): 0.554
- relative viability (EMC-BAC-2; first compound 4 µM): 0.505
- relative viability (NCI-H1563; first compound 0.04 µM): 0.66
- relative viability (NCI-H1563; first compound 0.1265 µM): 0.671
- relative viability (NCI-H1563; first compound 0.4 µM): 0.638
- relative viability (NCI-H1563; first compound 1.265 µM): 0.651
- relative viability (NCI-H1563; first compound 4 µM): 0.634
- relative viability (NCI-H1651; first compound 0.04 µM): 0.51
- relative viability (NCI-H1651; first compound 0.1265 µM): 0.609
- relative viability (NCI-H1651; first compound 0.4 µM): 0.559
- relative viability (NCI-H1651; first compound 1.265 µM): 0.646
- relative viability (NCI-H1651; first compound 4 µM): 0.646
- relative viability (NCI-H322M; first compound 0.04 µM): 0.461
- relative viability (NCI-H322M; first compound 0.1265 µM): 0.471
- relative viability (NCI-H322M; first compound 0.4 µM): 0.512
- relative viability (NCI-H322M; first compound 1.265 µM): 0.441
- relative viability (NCI-H322M; first compound 4 µM): 0.449
- relative viability (ChaGo-K-1; first compound 0.04 µM): 0.794
- relative viability (ChaGo-K-1; first compound 0.1265 µM): 0.785
- relative viability (ChaGo-K-1; first compound 0.4 µM): 0.679
- relative viability (ChaGo-K-1; first compound 1.265 µM): 0.863
- relative viability (ChaGo-K-1; first compound 4 µM): 0.556
